{
  "source": "patent US10017524B2",
  "about": "“Compound and pharmaceutical composition for neuropsychological disorder or malignant tumor” (KYOTO UNIVERSITY, priority 2012, dated 2018)",
  "key": {"[1]": {"test_system": "phosphorylation of a threonine residue at position 212 of tau protein by DYRK1A protein", "assay": "Inhibitory activity on phosphorylation of tau protein in cultured cells expressing tau and DYRK1A (western blot, Thr212)", "format": "cell-based", "details": "compounds of 10 μM, phospho-Thr212 tau, cells expressing tau and DYRK1A", "method": "The inhibitory activity of the compounds synthesized in the production examples on the phosphorylation of tau protein was evaluated by an evaluation system using the following cultured cells.\nThe cultured cells that can induce the expressions of tau protein and DYRK1A protein individually and that allow the phosphorylation of the tau protein to be evaluated depending on the activity of the DYRK1A protein were used in the evaluation system. […] Therefore, the inhibitory activity on the phosphorylation of the tau protein can be evaluated by inducing the expressions of both the tau protein and the DYRK1A protein, and evaluating the degree of phosphorylation of a threonine residue at position 212 of the tau protein.\nThe compounds 1, 4, and 6 to 9 (10 μM) were added to the evaluation system, and the phosphorylation of the tau protein was detected with the antibody that specifically recognizes the phosphorylation of a threonine residue at position 212 of the tau protein. […] The “control” represents the result of adding no compound.\nThe inhibitory activity of the compounds 1 and 2 on the phosphorylation of tau protein was evaluated in the same manner as the Experimental example 1.\nThe “control” represents the result of adding no compound.\nThe inhibitory activity of the compounds 3, 6, and 9 to 15 on the phosphorylation of tau protein was evaluated in the same manner as the experimental example 1. FIGS. 7 to 9 show an example of the results."}, "[2]": {"test_system": "Down's syndrome-derived acute megakaryoblastic leukemia (AMKL) cells KPAM1", "assay": "Inhibition of growth of cancer cells (Alamar Blue)", "format": "cell-based", "details": "KPAM1, cultivation for 5 days", "method": "(§1) Specifically, the cells were seeded on a 24 Well plate, and the compounds at a predetermined concentration were added. After cultivation for 5 days, the number of cells was calculated by detecting the fluorescence intensity with Alamar Blue. The culture medium containing the compounds was replaced every day. FIGS. 10 to 12 show an example of the results."}, "[3]": {"test_system": "retinoblastoma cell lines WERI", "assay": "Inhibition of growth of cancer cells (Alamar Blue)", "format": "cell-based", "method": "as §1"}, "[4]": {"test_system": "MDA-MB-453 human breast cancer cells (triple-negative)", "assay": "Growth inhibition, adherent and non-adherent culture (Alamar Blue)", "format": "cell-based", "details": "MDA-MB-453, cells cultured to prevent adhering", "method": "as §1\n(§2) In addition, the effect was also confirmed when the target cells were cultured to prevent them from adhering to each other."}, "[5]": {"test_system": "MDA-MB-468 human breast cancer cells (triple-negative)", "assay": "Growth inhibition, adherent and non-adherent culture (Alamar Blue)", "format": "cell-based", "details": "MDA-MB-468, cells cultured to prevent adhering", "method": "as §1, §2"}, "[6]": {"test_system": "PC-9-GR-high lines", "assay": "Growth inhibition, microscopic observation", "format": "cell-based, human", "details": "microscope"}, "[7]": {"test_system": "human lung adenocarcinoma-derived cell lines (PC-9)", "assay": "Growth inhibition, microscopic observation", "format": "cell-based", "details": "PC-9 lines, microscope"}, "[8]": {"test_system": "PC-9-GR-step lines (gefitinib-resistant sub-lines of PC-9)", "assay": "Growth inhibition, microscopic observation", "format": "cell-based, human", "details": "microscope"}},
  "data": [
    {"compound": "CCN1/C(=C/C(C)=O)Sc2ccc3oc4ccccc4c3c21", "note": "[Compound 3, (Z)-1-[1-ethylbenzo[2,3]benzofuro[4,5-d]thiazol-2(1H)-ylidene]propan-2-one]", "values": [
      {"measurement": "inhibitory effect on the phosphorylation of the tau protein", "setting": "[1]", "value": "inhibitory effect"},
      {"measurement": "inhibitory effect on the growth of the cancer cells", "setting": "[2]", "value": "excellent inhibitory effect"},
      {"measurement": "inhibitory effect on the growth of the cancer cells", "setting": "[3]", "value": "inhibitory effect"},
      {"measurement": "inhibitory effect on the anchorage-independent growth", "setting": "[4]", "value": "inhibitory effect"},
      {"measurement": "inhibitory effect on the anchorage-independent growth", "setting": "[5]", "value": "inhibitory effect"},
      {"measurement": "apoptosis-inducing activity on the cancer cells", "setting": "[6]", "value": "excellent apoptosis-inducing activity"},
      {"measurement": "apoptosis-inducing activity on the cancer cells", "setting": "[7]", "value": "excellent apoptosis-inducing activity"},
      {"measurement": "apoptosis-inducing activity on the cancer cells", "setting": "[8]", "value": "excellent apoptosis-inducing activity"}
    ]}
  ]
}
